The text below walks through data of patent publication US20120010164A1, “ANTIVIRAL AGENTS” (priority 2009, published 2012).

In series [1] the test system is subgenomic HCV Replicon in hepatoma (HuH-7) cells. The experiment in a line: Assay for inhibition of HCV RNA replication (replicon, in situ ribonuclease protection SPA). Type of series: cell-based. The following applies: Hepatitis C virus, HuH-7 replicon cells, activity ranges. As for the experimental part: The compounds of the present invention were also evaluated for their ability to affect the replication of Hepatitis C Virus RNA in cultured hepatoma (HuH-7) cells containing a subgenomic HCV Replicon. The details of the assay are described below. This Replicon assay is a modification of that described in V. Lohmann, F. Korner, J-O. Koch, U. Herian, L. Theilmann, and R. Bartenschlager, “Replication of a Sub-genomic Hepatitis C Virus RNAs in a Hepatoma Cell Line,” Science 285:110 (1999).
The assay was an in situ Ribonuclease protection, Scintillation Proximity based-plate assay (SPA). 10,000-40,000 cells were plated in 100-200 μL of media containing 0.8 mg/mL G418 in 96-well cytostar plates (Amersham). Compounds were added to cells at various concentrations up to 100 μM in 1% DMSO at time 0 to 18 h and then cultured for 24-96 h. Cells were fixed (20 min, 10% formalin), permeabilized (20 min, 0.25% Triton X-100/PBS) and hybridized (overnight, 50° C.) with a single-stranded ^33P RNA probe complementary to the (+) strand NS5B (or other genes) contained in the RNA viral genome. Cells were washed, treated with RNAse, washed, heated to 65° C. and counted in a Top-Count Inhibition of replication was read as a decrease in counts per minute (cpm).
Human HuH-7 hepatoma cells, which were selected to contain a subgenomic replicon, carry a cytoplasmic RNA consisting of an HCV 5′ non-translated region (NTR), a neomycin selectable marker, an EMCV IRES (internal ribosome entry site), and HCV non-structural proteins NS3 through NS5B, followed by the 3′ NTR.
On the technique in general: Replicon systems follow genome replication, usually without infectious particles.

The nature of series [2]: Cellular toxicity counterscreen (CC50). Type of series: cell-based. The conditions noted are these: human, HuH-7 hepatoma cells. As for the experimental part:
The compounds of the present invention were also evaluated for cellular toxicity and anti-viral specificity in the counterscreens described below.
For orientation: A counterscreen serves to expose hits that act by an unwanted route or on another target.

Structures are written as SMILES. Where only a bound is given, the exact number is not on record here.

Usually EC50 stands for the concentration giving half of the maximal effect. What is called CC50 is the concentration at which the toxic effect on the cells reaches its halfway point. Low readings indicate greater toxicity to the cells, high ones lower toxicity to the cells. `[N-]=[N+]=N[C@]1(CO)O[C@@H](n2ccc3c(N)ncnc32)[C@@H](F)[C@@H]1O` [Example 1, 7-(4-azido-2-deoxy-2-fluoro-β-D-arabinofuranosyl)-7H-pyrrolo[2,3-d]pyrimidin-4-amine] displayed an EC50 in series [1] of less than 20 µM. In series [2], this molecule had a CC50 greater than 100 µM.

`[N-]=[N+]=N[C@]1(CO)O[C@@H](n2cc(F)c3c(N)ncnc32)[C@@H](F)[C@@H]1O` [Example 2, 7-(4-azido-2-deoxy-2-fluoro-β-D-arabinofuranosyl)-5-fluoro-7H-pyrrolo[2,3-d]pyrimidin-4-amine] yielded an EC50 in series [1] of 20 to 100 µM. This molecule came in with a CC50 in series [2] greater than 100 µM.

The molecule `[N-]=[N+]=N[C@]1(CO)OC(n2cnc3c(N)ncnc32)[C@@H](F)[C@@H]1O` (stereo partly drawn) [Example 3, 9-(4-azido-2-deoxy-2-fluoro-b-D-arabinofuranosyl)-9H-purin-6-amine] showed an EC50 in series [1] greater than 100 µM. Moreover, in series [2], the CC50 was greater than 100 µM.
